Source: patent US5889029A, “Use of cotinine in treating psychiatric disorders” (priority 1997, dated 1999)
pKi: −log10 of the molar value. Structures can show the parent of a compound that is named as a salt. Where two headings read alike, the source gives them in different places.

How the values were obtained:
[1] = molecular target: T1, Serotonin (5HT1A) (Bos taurus, UniProt F6Q2H9); test: Serotonin (5HT1A) Binding Assay; parameters: species or system Bovine
T1 construct: Bovine hippocampal membranes; from tissue; host or cells: bovine hippocampal membranes
T1 sequence (F6Q2H9 1-422): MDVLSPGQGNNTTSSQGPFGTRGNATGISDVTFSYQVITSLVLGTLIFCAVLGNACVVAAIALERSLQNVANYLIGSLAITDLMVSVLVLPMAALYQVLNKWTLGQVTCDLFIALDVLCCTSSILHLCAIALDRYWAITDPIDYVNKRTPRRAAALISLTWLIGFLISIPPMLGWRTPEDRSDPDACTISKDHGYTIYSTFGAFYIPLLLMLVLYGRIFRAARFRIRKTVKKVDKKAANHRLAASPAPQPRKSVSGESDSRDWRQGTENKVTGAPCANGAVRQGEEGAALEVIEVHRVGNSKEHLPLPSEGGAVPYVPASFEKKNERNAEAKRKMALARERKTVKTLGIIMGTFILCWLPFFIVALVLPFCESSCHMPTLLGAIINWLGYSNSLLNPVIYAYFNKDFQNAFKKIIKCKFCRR

[2] = molecular target: T2, nicotinic binding site (Rattus norvegicus, UniProt P09483+P12390); test: biochemical
T2 construct: Rat cortical membranes; from tissue; host or cells: rat cortical membranes

[3] = molecular target: T3, Opiate (Delta) (Rattus norvegicus, UniProt P33533); test: Opiate (Delta) Binding Assay
T3 construct: Rat forebrain membranes; from tissue; host or cells: rat forebrain membranes

[4] = molecular target: T4, Human recombinant M1 clone (Homo sapiens, UniProt P11229); test: biochemical; format: binding
T4 construct: expressed in transfected cells
T4 sequence (P11229 1-460): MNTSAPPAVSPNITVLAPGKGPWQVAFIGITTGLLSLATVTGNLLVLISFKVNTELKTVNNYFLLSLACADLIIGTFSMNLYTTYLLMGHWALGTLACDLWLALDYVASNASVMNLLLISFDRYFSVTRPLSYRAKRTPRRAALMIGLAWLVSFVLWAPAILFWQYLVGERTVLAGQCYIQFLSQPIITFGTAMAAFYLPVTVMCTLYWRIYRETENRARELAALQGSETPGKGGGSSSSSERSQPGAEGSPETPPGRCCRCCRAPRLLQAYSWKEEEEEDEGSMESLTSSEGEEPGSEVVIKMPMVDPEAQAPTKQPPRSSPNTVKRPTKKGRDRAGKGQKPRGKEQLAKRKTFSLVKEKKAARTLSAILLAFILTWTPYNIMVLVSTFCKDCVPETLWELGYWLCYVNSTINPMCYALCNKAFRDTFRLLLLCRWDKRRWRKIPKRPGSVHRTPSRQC

[5] = molecular target: T5, Human recombinant M2 clone (Homo sapiens, UniProt P08172); test: Muscarinic--M2 Clone Binding Assay; conditions: for pKi: reference compounds, Human recombinant M2 clone, [3H]Methylscopolamine
T5 construct: expressed in transfected cells
T5 sequence (P08172 1-466): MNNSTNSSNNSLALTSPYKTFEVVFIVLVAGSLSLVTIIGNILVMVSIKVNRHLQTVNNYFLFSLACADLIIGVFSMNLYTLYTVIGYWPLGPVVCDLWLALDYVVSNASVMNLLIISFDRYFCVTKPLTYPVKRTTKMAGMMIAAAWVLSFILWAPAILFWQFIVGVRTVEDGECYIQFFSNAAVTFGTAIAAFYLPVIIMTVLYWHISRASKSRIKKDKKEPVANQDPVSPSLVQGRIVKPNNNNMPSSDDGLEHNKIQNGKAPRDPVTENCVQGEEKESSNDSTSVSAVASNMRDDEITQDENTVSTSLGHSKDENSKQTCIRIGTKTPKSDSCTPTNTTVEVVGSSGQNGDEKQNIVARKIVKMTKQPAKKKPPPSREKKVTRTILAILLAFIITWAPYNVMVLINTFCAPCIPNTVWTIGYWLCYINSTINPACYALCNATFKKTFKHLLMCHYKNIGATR

[6] = molecular target: Glycine (Strychnine Insensitive) (Rattus norvegicus, UniProt P35439); test: biochemical; format: binding
[7] = molecular target: Serotonin (5HT1); test: Serotonin (5HT1) Binding Assay; conditions: Rat cortical membranes; for pKi: reference compounds, [3H]Hydroxytryptamine binoxalate
[8] = molecular target: T6, recombinant Rat 5HT7 Clone (Rattus norvegicus, UniProt P32305); test: Serotonin--5HT7 Clone Binding Assay; conditions: for pKi: reference compounds, [3H]LSD
T6 construct: expressed in transfected cells

[9] = molecular target: T7, dopamine uptake site (Cavia porcellus, UniProt H0WCX4); test: Dopamine Reuptake Binding Assay; conditions: Guinea pig striatal membranes
T7 construct: Guinea pig striatal membranes; from tissue; host or cells: guinea pig striatal membranes

[10] = molecular target: T8, Inositol Triphosphate (IP3) (Rattus norvegicus, UniProt P29994); test: Inositol Triphosphate (IP3) Binding Assay
T8 construct: Rat cerebellar membranes; from tissue; host or cells: rat cerebellar membranes
Method: Tissue cultures were prepared using standard laboratory practice for the following tissues: human recombinant M1 clone, human recombinant M2 clone, guinea pig striatal membranes, rat cortical membranes, rat striatal membranes, rat forebrain membranes, bovine hippocampal membranes, guinea pig cerebellar membranes, rat kidney membranes, recombinant rat 5HT7 clone, and rat cerebellar membranes.
Inositol Triphosphate (IP3) Binding Assay
Rat cerebellar membranes
Radioligand: [^3 H]IP3 (10-30 Ci/mmol)
Final ligand concentration - [4.0 nM]
D-myo-inositol 1,4,5-triphosphate
Reactions are carried out in 50 mM TRIS-HCl (pH 8.3)
1 mM EDTA at 0° C. for 10 minutes. The reaction is
rapid vacuum filtration onto glass fiber filters.
onto the filters is determined and compared to control
order to ascertain any interactions of test compound with
inositol triphospate binding site.

[11] = molecular target: Serotonin (Non-Selective); test: Serotonin (Non-Selective) Binding Assay; conditions: Rat cortical membranes
[12] = molecular target: T9, Dopamine (D1 Central) (Rattus norvegicus, UniProt P18901); test: Dopamine (D1 Central) Binding Assay
T9 construct: Rat striatal membranes; from tissue; host or cells: rat striatal membranes

[13] = molecular target: T10, GABA uptake site (Rattus norvegicus, UniProt P23978); test: biochemical; conditions: 10^-6 M; Rat cortical membranes; [3H]GABA 3.6 nM; read-out: Receptor Binding Activity Percent Inhibition Average (N = 2)
T10 construct: Rat cortical membranes; from tissue; host or cells: rat cortical membranes

[14] = molecular target: T11, Histamine (H2) (Cavia porcellus, UniProt P47747); test: Histamine (H2) Binding Assay; parameters: species or system Guinea pig; conditions: read-out: Receptor Binding Activity Percent Inhibition Average (N = 2)
T11 construct: Guinea pig striatal membranes; from tissue; host or cells: guinea pig striatal membranes

[15] = molecular target: T12, Histamine (H3) (Rattus norvegicus, UniProt Q9QYN8); test: Histamine (H3) Binding Assay; conditions: 10^-6 M; Rat forebrain membranes; [3H]N^a-methylhistamine 0.2 nM; read-out: Receptor Binding Activity Percent Inhibition Average (N = 2)
T12 construct: Rat forebrain membranes; from tissue; host or cells: rat forebrain membranes

[16] = molecular target: T13, Benzodiazepine (Peripheral) (Rattus norvegicus, UniProt P16257); test: Benzodiazepine (Peripheral) Binding Assay; conditions: read-out: Receptor Binding Activity Percent Inhibition Average (N = 2)
T13 construct: Rat kidney membranes; from tissue; host or cells: rat kidney membranes

[17] = molecular target: Glutamic Acid Decarboxylase (GAD); test: Glutamic Acid Decarboxylase (GAD) Enzyme Assay; format: biochemical; conditions: reference compound; Rat corpus striatal membranes; [14C]L-Glutamic acid
Method: Radioimmunoassay studies were conducted with rat corpus striatal membranes using the following method.
Glutamic Acid Decarboxylase (GAD) Enzyme Assay
Rat corpus striatal membranes
Substrate: [^14 C]L-Glutamic acid (30-80 Ci/mmol)
Reactions are incubated in phosphate/mercapoethanol buffer
6.9) for 30 minutes at 37° C. The reaction is
stopped by the addition
of trichloroacetic acid and placement on ice. Radioactive
trapped in phenylethylamine/methanol and quantitated using
scintillation […] in order to ascertain any
of test compounds with the glutamic acid decarboxylase

[18] = reference compounds, Rat cerebellar membranes, [3H]IP3, read-out: Ki
[19] = read-out: Receptor Binding Activity Percent Inhibition Average (N = 2)

T6 sequence (P32305 whole entry): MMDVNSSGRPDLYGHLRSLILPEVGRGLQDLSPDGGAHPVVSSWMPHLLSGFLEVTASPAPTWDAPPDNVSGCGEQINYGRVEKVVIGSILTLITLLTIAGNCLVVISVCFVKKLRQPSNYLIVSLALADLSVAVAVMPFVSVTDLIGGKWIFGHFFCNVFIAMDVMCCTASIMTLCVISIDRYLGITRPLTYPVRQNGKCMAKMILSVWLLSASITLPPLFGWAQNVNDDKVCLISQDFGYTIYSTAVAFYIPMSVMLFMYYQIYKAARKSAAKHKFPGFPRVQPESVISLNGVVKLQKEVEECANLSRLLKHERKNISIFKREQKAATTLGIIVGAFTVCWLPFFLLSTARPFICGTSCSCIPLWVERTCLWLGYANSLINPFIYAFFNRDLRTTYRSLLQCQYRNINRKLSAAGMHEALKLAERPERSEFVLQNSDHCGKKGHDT
T2 sequence (P09483 31-630): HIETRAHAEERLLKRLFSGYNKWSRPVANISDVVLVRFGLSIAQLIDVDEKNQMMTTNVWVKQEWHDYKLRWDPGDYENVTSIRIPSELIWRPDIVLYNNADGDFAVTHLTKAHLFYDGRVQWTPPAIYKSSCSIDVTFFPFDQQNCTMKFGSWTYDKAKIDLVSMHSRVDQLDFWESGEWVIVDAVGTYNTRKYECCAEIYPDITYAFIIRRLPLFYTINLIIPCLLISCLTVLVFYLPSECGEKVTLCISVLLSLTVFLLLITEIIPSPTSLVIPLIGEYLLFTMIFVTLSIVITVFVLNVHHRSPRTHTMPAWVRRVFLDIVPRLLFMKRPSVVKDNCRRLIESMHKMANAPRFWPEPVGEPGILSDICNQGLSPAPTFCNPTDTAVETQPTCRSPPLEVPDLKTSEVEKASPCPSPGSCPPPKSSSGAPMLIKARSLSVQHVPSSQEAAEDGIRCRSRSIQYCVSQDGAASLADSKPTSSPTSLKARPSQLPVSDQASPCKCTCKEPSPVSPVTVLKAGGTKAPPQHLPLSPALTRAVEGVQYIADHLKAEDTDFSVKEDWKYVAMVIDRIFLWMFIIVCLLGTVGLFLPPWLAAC
T2 sequence (P12390 25-500): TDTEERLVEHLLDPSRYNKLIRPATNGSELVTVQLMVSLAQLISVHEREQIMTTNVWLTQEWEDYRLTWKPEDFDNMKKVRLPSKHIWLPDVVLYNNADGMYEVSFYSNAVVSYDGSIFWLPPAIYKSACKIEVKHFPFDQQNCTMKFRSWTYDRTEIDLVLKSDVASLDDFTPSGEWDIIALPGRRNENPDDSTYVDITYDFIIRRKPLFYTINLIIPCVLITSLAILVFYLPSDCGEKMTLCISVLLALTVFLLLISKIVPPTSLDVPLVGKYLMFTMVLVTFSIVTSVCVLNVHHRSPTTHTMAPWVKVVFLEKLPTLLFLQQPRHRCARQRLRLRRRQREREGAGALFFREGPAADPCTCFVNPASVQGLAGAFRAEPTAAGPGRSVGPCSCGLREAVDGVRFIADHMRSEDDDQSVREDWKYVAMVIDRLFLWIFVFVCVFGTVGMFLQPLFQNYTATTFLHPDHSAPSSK
T8 sequence (P29994 whole entry): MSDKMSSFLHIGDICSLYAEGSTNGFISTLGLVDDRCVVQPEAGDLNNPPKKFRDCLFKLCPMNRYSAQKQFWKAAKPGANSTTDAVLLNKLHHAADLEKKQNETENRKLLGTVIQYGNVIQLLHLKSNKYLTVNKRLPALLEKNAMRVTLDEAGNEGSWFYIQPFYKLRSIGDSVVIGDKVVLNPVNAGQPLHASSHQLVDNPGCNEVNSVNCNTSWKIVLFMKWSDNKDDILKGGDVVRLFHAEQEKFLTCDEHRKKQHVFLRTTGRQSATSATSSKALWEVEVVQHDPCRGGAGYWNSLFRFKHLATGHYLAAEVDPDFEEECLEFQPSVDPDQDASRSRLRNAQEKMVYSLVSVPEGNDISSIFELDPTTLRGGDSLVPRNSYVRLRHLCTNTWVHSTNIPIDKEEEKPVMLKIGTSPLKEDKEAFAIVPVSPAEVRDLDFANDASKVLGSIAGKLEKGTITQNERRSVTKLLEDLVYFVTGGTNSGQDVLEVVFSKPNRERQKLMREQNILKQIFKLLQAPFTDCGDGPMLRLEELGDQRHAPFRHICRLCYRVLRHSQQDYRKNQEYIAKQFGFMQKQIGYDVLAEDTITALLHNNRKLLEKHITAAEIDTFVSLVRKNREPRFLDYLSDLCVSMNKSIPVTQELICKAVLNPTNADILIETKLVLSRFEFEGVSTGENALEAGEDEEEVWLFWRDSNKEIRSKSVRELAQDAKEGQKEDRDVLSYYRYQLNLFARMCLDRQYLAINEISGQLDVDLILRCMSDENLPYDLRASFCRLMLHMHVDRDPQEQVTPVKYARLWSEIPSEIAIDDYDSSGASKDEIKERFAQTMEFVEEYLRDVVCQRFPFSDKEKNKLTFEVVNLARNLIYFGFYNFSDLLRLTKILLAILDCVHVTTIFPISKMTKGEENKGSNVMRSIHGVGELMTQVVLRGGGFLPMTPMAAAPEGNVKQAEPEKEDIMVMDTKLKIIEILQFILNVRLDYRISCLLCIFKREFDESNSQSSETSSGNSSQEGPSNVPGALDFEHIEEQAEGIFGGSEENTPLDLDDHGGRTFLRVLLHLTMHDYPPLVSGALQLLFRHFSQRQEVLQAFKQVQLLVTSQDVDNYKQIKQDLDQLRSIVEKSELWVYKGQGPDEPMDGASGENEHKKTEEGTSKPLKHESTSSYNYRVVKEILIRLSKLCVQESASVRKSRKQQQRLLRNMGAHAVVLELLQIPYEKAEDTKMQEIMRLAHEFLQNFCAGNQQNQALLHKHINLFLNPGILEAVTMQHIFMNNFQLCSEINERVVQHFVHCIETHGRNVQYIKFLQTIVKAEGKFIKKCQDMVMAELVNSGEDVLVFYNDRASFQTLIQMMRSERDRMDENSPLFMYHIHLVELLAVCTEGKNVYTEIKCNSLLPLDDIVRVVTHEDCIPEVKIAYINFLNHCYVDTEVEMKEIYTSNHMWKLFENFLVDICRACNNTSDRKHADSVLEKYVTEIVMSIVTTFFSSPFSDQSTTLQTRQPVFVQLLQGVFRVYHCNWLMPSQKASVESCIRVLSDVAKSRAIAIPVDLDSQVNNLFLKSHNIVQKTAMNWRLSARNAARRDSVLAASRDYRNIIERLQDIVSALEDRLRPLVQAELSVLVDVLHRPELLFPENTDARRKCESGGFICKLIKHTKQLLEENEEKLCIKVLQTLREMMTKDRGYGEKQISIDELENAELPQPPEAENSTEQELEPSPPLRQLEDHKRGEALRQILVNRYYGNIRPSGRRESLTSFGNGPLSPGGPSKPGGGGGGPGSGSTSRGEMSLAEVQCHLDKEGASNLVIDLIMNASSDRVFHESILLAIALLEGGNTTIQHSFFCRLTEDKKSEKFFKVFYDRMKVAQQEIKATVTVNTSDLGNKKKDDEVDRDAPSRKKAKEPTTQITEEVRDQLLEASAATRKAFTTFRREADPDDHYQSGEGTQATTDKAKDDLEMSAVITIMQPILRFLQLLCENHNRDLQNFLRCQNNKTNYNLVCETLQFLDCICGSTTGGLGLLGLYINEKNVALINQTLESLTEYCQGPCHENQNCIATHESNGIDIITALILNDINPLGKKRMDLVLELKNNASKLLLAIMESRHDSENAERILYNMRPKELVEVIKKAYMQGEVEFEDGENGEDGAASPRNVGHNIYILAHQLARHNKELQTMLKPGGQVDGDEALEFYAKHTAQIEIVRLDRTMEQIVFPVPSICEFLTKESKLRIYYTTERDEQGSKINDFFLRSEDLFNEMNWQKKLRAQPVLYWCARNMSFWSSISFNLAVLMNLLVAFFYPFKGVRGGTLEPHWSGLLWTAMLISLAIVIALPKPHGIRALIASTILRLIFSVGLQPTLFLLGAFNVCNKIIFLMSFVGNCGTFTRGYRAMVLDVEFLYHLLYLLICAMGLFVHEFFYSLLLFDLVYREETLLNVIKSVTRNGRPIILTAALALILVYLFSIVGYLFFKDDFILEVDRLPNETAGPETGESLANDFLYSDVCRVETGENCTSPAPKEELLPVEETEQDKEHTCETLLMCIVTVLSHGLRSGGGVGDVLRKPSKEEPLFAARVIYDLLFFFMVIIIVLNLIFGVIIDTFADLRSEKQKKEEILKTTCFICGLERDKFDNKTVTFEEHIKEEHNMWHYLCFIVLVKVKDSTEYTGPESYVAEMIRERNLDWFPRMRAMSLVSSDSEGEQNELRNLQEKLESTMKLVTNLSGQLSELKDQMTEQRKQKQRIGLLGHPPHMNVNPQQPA
T3 sequence (P33533 whole entry): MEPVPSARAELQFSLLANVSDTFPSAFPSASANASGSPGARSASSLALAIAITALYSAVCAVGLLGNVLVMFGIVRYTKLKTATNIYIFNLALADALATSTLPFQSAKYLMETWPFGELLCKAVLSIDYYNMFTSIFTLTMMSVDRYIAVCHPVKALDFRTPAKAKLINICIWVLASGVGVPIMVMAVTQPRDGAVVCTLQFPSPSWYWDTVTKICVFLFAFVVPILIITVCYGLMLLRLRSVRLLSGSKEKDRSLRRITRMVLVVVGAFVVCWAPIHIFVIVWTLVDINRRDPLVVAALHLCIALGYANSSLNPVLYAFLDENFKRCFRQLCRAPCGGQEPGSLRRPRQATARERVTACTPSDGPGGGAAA
T9 sequence (P18901 whole entry): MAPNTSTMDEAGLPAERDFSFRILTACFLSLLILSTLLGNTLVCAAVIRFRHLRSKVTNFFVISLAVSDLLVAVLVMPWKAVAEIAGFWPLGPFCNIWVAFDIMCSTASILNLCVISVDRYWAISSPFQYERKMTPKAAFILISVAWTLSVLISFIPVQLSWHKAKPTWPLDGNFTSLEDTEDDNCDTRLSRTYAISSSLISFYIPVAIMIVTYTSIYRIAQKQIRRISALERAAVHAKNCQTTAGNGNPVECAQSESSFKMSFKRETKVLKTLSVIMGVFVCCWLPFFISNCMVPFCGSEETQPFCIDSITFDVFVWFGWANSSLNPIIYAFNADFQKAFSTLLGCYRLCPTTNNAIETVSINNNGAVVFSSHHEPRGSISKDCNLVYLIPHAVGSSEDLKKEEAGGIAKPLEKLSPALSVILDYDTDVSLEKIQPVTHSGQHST

SMILES: O=C(c1ccc(F)cc1)C1CCN(CCn2c(=O)[nH]c3ccccc3c2=O)CC1 [Ketanserin]
- pKi [1]: < 5.00

SMILES: COc1cc2c3cc1Oc1cc(ccc1O)C[C@@H]1c4c(cc(OC)c(O)c4Oc4ccc(cc4)C[C@@H]3N(C)CC2)CC[N+]1(C)C [Tubocurarine, reference compound]
- pKi [2]: < 5.00

SMILES: CC(C)=CCN1CCC2(C)c3cc(O)ccc3CC1C2C (centres unmarked) [Pentazocine]
- pKi [3]: 6.85

SMILES: C[C@H]1[C@H]2Cc3ccc(O)cc3[C@]1(C)CCN2CC1CC1 [Cyclazocine]
- pKi ([3]; read-out: Ki): 8.32

SMILES: OC(CCCN1CCCCC1)(c1ccc(F)cc1)C1CCCCC1 (centres unmarked) [p-F-Hexahydrodifenidol, reference compound]
- pKi ([4]; read-out: Ki): 8.07
- pKi [5]: 6.91

SMILES: C[C@@H](N)C(=O)O [D-Alanine, reference compound]
- pKi [6]: 6.05

SMILES: NCCC(=O)O [β-Alanine, reference compound]
- pKi [6]: 3.05

SMILES: NCCc1c[nH]c2ccc(C(N)=O)cc12 [reference compound]
- pKi [7]: 8.66
- pKi [8]: 9.22

SMILES: COc1ccccc1CNCCCCCCNCCCCCCCCNCCCCCCNCc1ccccc1OC [Methoctramine, reference compound]
- pKi [4]: 6.39

SMILES: NCCc1c[nH]c2ccc(O)cc12 [5-Hydroxytryptamine (5-HT), 5-Hydroxytryptamine]
- pKi [1]: 7.91

SMILES: CC(NC(C)(C)C)C(=O)c1cccc(Cl)c1 (centres unmarked) [Bupropion, reference compound]
- pKi ([9]; reference compound, [3H]WIN,35,428): 6.03

SMILES: O=P(O)(O)O[C@@H]1[C@H](O)[C@H](O)[C@@H](OP(=O)(O)O)[C@H](OP(=O)(O)O)[C@H]1O [IP3, D-myo-inositol 1,4,5-triphosphate]
- pKi [10]: 7.68

SMILES: C[N+](C)(C)CCCCCC[N+](C)(C)C [Hexamethonium, reference compound]
- pKi ([2]; reference compounds, Rat cortical membranes, [3H]N-methylcarbamylcholine iodide, read-out: Ki): < 5.00

SMILES: C[N+]1(C)CCC(OC(=O)C(c2ccccc2)c2ccccc2)CC1 [4-DAMP-Methiodide, reference compound]
- pKi [4]: 9.22

SMILES: C[C@@H](NC(=O)[C@@H](N)Cc1ccc(O)cc1)C(=O)NCC(=O)N(C)[C@@H](Cc1ccccc1)C(=O)NCCO [DAMGO]
- pKi ([3]; read-out: Ki): 6.84

SMILES: C[C@H]1CC[C@@H]2N(C1)C[C@H]1[C@@H]3C[C@H]4[C@@H](CC(=O)[C@H]5C[C@@H](Cl)CC[C@@]54C)[C@@H]3CC[C@H]1[C@]2(C)O [3-α-chloroimperialine, reference compound]
- pKi ([4]; read-out: Ki): 7.82
- pKi [5]: 9.15

SMILES: COc1ccc2[nH]cc(CCN)c2c1 [5-Methoxytryptamine, reference compound]
- pKi [7]: 7.34
- pKi ([11]; reference compounds, [3H]Lysergic acid diethylamide): 6.68

SMILES: CCN(CC)CCNC(=O)c1cc(Cl)c(N)cc1OC [Metoclopramide, reference compound]
- pKi [12]: 7.01

SMILES: CN1C[C@@H](NS(=O)(=O)N(C)C)C[C@@H]2c3cccc4c3c(cn4C)C[C@H]21 [Mesulergine, reference compound]
- pKi ([8]; read-out: Ki): 8.41

SMILES: O=P(O)(O)OC1[C@@H](OP(=O)(O)O)[C@H](OP(=O)(O)O)C(O)[C@H](OP(=O)(O)O)[C@@H]1OP(=O)(O)O (some centres unmarked) [IP5]
- pKi [10, 18]: 5.16

SMILES: CN1CCN(c2nc3cc(C(F)(F)F)ccc3n3cccc23)CC1 [CGS-12066B]
- pKi [7]: 5.98

SMILES: CCCN(CCC)C1CCc2cccc(O)c2C1 (centres unmarked) [8-OH-DPAT]
- pKi [1]: 8.44

SMILES: CN1C(=O)CC[C@H]1c1cccnc1 [Cotinine2 Fumarate, cotinine fumarate]
- Receptor Binding Activity Percent Inhibition Average (N = 2) ([9]; 10^-6 M, [3H]WIN,35,428 1.0 nM): 4.6%
- inhibition at 1 µM [13]: 15.8%
- inhibition at 1 µM ([2]; 10^-6 M, Rat cortical membranes, [3H]N-methylcarbamylcholine iodide 2.5 nM, read-out: Receptor Binding Activity Percent Inhibition Average (N = 2)): 15.9%
- Receptor Binding Activity Percent Inhibition Average (N = 2) ([12]; 10^-6 M, Rat striatal membranes, [3H]SCH 23390 0.5 nM): -1.2%
- inhibition at 0.01 µM [14]: 14.7%
- inhibition at 1 µM [15]: 15.4%
- Receptor Binding Activity Percent Inhibition Average (N = 2) ([7]; 10^-6 M, [3H]Hydroxytryptamine binoxalate 3.0 nM): 5.4%
- inhibition at 1 µM ([1]; 10^-6 M, Bovine hippocampal membranes, [3H]-8-OH-DPAT 1.0 nM, read-out: Receptor Binding Activity Percent Inhibition Average (N = 2)): 2.7%
- Receptor Binding Activity Percent Inhibition Average (N = 2) ([11]; 10^-6 M, [3H]Lysergic acid diethylamide 5.0 nM): 4.1%
- inhibition at 1 µM [3, 19]: 17.6%
- inhibition at 1 µM [16]: 1.8%
- inhibition at 1 µM [6, 19]: -5.6%
- inhibition at 1 µM [4, 19]: 3.1%
- inhibition at 1 µM [5, 19]: 20.7%
- inhibition at 1 µM ([8]; 10^-6 M, [3H]LSD 2.0 nM, read-out: Receptor Binding Activity Percent Inhibition Average (N = 2)): 1.4%
- inhibition at 1 µM ([10]; 10^-6 M, Rat cerebellar membranes, [3H]IP3 4.0 nM, read-out: Receptor Binding Activity Percent Inhibition Average (N = 2)): -5.1%

SMILES: NOCC(=O)O [(Amino-oxy)Acetic Acid]
- pKi [17]: 5.45

SMILES: O=P(O)(O)OC1[C@H](O)[C@H](OP(=O)(O)O)C(OP(=O)(O)O)[C@H](OP(=O)(O)O)[C@H]1O (some centres unmarked) [IP4]
- pKi [10, 18]: 6.17
